Patent publication US20030144477A1, “Immunodominant acetylcholine receptor alpha subunit peptide: MHC complexes” (Corixa Corporation, priority 2001, published 2003)
Blank lines part the entries; values can stand above or below the compound they belong to. Peptide text beside a SMILES is read from it.

What was measured:
[1] = target: HLA-DR3 (a mix of DRB1*0301 and DRB3*0101); assay: DELFIA competitive binding assay against biotinylated MBP 84-102, solubilized HLA-DR3; design: species or system human; conditions: for IC50: competitive binding to solubilized HLA-DR3, pH 5.5, vs biotinylated MBP 84-102; for affinity for HLA-DR3: in words, from IC50
Text: (§1) Important peptides in MG can be identified, for example, by screening a set of overlapping AChR peptides for binding to HLA-DR2 and HLA-DR3. The binding affinity of a peptide to the MHC compound can be measured using a variety of binding assays known to those of skill in the art. An example of suitable binding assay is the europium-based competitive binding assay (see, e.g., Tompkins et al. (1993) J. Immunol. Methods 163:209-216). Additionally, the capacity of the peptides of the invention to induce a T cell response can be determined using a variety of standard methods, known to those of skill in the art, as described below.
(§2) A set of 68 overlapping AChRα peptides (14 mer with 7 amino acids overlapping) was tested by dissociation-enhanced lenthanide fluoroimmunoassay (“DELFIA”) competitive binding assay for their relative affinity to […]. […] The sequence of the AChRα subunit is shown with each of the transmembrane regions (M1-M4) indicated by a shaded box.) Ten-fold dilutions (preferably 1-100,000 nM) of unlabeled AChRα peptides were co-incubated at pH 5.5 with the biotinylated myelin basic protein peptide MBP 84-102, and the IC50 of binding to solubilized HLA-DR2 (a mix of DRB1*1501 and DRB5*0101) or HLA-DR3 (a mix of DRB1*0301 and DRB3*0101) was measured. Measurement of the IC50 is preferably done by europium-streptavidin dissociation-enhanced lenthanide fluoroimmunoassay (DELFIA) and the IC50 typically calculated by four parameter fit analysis with the software program SOFTmax Pro. FIG. 2 lists the IC50s of each AChRα peptide binding to HLA-DR2 and HLA-DR3.

[2] = target: HLA-DR1; assay: DELFIA europium-based competitive binding assay, HLA-DR1; design: species or system human; conditions: competitive binding to HLA-DR1
[3] = target: solubilized HLA-DR2 (a mix of DRB1*1501 and DRB5*0101) (Homo sapiens, UniProt P01903+P01911+Q30154); assay: DELFIA competitive binding assay against biotinylated MBP 84-102, solubilized HLA-DR2; conditions: for relative affinity for HLA-DR2: in words, from IC50 / 1/IC50 plot
Text: as §1
A set of 68 overlapping AChRα peptides (14 mer with 7 amino acids overlapping) was tested by dissociation-enhanced lenthanide fluoroimmunoassay (“DELFIA”) competitive binding assay for their relative affinity to HLA-DR4. […] Measurement of the IC50 is preferably done by europium-streptavidin dissociation-enhanced lenthanide fluoroimmunoassay (DELFIA) and the IC50 typically calculated by four parameter fit analysis with the software program SOFTmax Pro.

[4] = target: solubilized DR4 (HLA-DR4); assay: europium-based competitive binding assay using solubilized DR4; design: species or system human; conditions: competitive binding to solubilized DR4
Experimental: as §2
In addition, the relative affinity for HLA-DR4 of a set of sixty nine synthetic overlapping peptides of AchRα (14 mer with 7 amino acids overlapping) was measured by a europium-based competitive binding assay using solubilized DR4. The concentration of AchR peptides required to inhibit 50% binding of a known DR4 binding peptide was calculated for each peptide. High affinity peptides were identified based on their IC50 value.

[5] = tested on: PBMCs from MG patients and normal healthy individuals; assay: modified ELISPOT assay of T cell reactivity (γ-IFN spots, reactive index); assay type: cell-based, human; conditions: reactive index above two; HLA type ignored; 9 MG patients vs 30 normals
Text: In addition, a modified ELISPOT assay, termed the Clonal Expansion ELISA-Spot (or CEE-SPOT) assay can also be used in the context of the present invention. In the CEE-SPOT assay, PBMCs are stimulated with antigen for an appropriate amount of time (e.g., 7 days) to promote proliferation of the antigen-specific T cells prior to re-stimulation and lymphokine capture (e.g., on day 10). […] The production of lymphokines can be measured using this assay, including, e.g., IL-2, IL-4, etc. Typically, lymphokine is captured on a filter, preferably a PVDF filter to improve the background and intensity of the spots. Spot counting is typically carried out using videocamera imaging and computer analysis. This type of assay can also be used to identify epitopes derived from natural processing, by first stimulating T cells with the whole protein and then re-stimulating them with peptides derived from the protein.
T cell reactivity of the above peptides to patient and normal healthy individual PBMCs was measured by modified ELISPOT assay. PBMCs obtained from 30 normals and 9 MG patients were included in this study. The above peptides along with TT/PPD as positive control and media as negative control were tested for T cell reactivity. […] Antigen specific cell stimulation profile for each antigen was measured by the secretion of γ-IFN detected as spots using a pair of anti-γIFN antibodies set. […]

[6] = tested on: HLA-DR2; assay: IC50
Text: Table printed on a drawing sheet, FIGURE 4
The best fit of AChRα peptide sequences to published HLA-DR2 motifs is indicated along with the IC50 value.
First copying reader's note: Sequences are printed with horizontal offsets as a motif alignment; the offsets are not reproduced in the grid.

Compound: CC(C)C[C@H](NC(=O)[C@H](CCCCN)NC(=O)[C@H](C)NC(=O)[C@@H](NC(=O)[C@@H](N)CC(C)C)C(C)C)C(=O)N[C@@H](Cc1ccccc1)C(=O)N[C@@H](CCCCN)C(=O)N[C@@H](CC(=O)O)C(=O)N[C@@H](Cc1ccc(O)cc1)C(=O)N[C@@H](CO)C(=O)N[C@@H](CO)C(=O)N[C@H](C(=O)N[C@H](C(=O)N[C@@H](CCCNC(=N)N)C(=O)N1CCC[C@H]1C(=O)N[C@H](C(=O)O)C(C)C)C(C)C)C(C)C [AChRα 7-22]
IC50 [1]: 6.15 µM
affinity for HLA-DR3 [1]: high affinity
IC50 [2]: > 100 µM

Compound: I P N I M F F S T M K R P S R E K Q (IPNIMFFSTMKRPSREKQ) [AChRα 320-337]
IC50 [6]: 6.61 µM

Compound: TGHITWTPPAIFKS [AChRα 113-126, AChRα subunit peptide fragment, residues 113-126] [listing 1 of 2 here]
IC50 [6]: 2.83 µM

Compound: TGHITWTPPAIFKS [AChRα 113-126, AChRα subunit peptide fragment, residues 113-126] [listing 2 of 2 here]
relative affinity for HLA-DR2 [3]: high relative affinity

Compound: V E V T V G L Q L I Q L I N (VEVTVGLQLIQLIN) [AChRα 27-42]
IC50 [6]: 9.18 µM

Compound: V I I P C L L F S F L T G L (VIIPCLLFSFLTGL) [AChRα 218-231]
IC50 [6]: 6.79 µM

More lines, main results first:

IC50 ([3]; competitive binding to solubilized HLA-DR2, pH 5.5, vs biotinylated MBP 84-102): 11 µM
IC50 [4]: 3.63 µM
IC50 [1]: 7.3 µM
affinity for HLA-DR3 [1]: high affinity
IC50 [2]: 11.2 µM
Compound: CC[C@H](C)[C@H](NC(=O)[C@H](CCC(N)=O)NC(=O)[C@H](CC(N)=O)NC(=O)[C@@H](NC(=O)[C@H](CCC(=O)O)NC(=O)[C@H](CC(=O)O)NC(=O)[C@@H](NC(=O)[C@H](CC(N)=O)NC(=O)[C@@H](NC(=O)[C@H](CC(C)C)NC(=O)[C@H](CCC(N)=O)NC(=O)[C@@H](NC(=O)[C@H](CC(C)C)NC(=O)[C@@H](N)CCC(N)=O)[C@@H](C)CC)[C@@H](C)CC)C(C)C)C(C)C)C(=O)O [AChRα 36-49] (H-QLIQLINVDEVNQI-OH; N-terminus and C-terminus assumed)
per cent of patients that show reactivity compared with per cent of normal healthy individuals [5]: approximately twice

IC50 [1]: 71.3 µM
IC50 [2]: 1.75 µM
Compound: CC[C@H](C)[C@H](NC(=O)[C@H](Cc1ccccc1)NC(=O)[C@H](Cc1ccc(O)cc1)NC(=O)[C@H](CC(C)C)NC(=O)[C@@H]1CCCN1C(=O)[C@H](CC(C)C)NC(=O)[C@H](CCCNC(=N)N)NC(=O)[C@H](CCC(N)=O)NC(=O)[C@H](CCSC)NC(=O)[C@@H](NC(=O)[C@H](Cc1ccccc1)NC(=O)[C@@H](N)Cc1c[nH]cn1)C(C)C)C(=O)N[C@H](C(=O)N[C@@H](CC(N)=O)C(=O)O)C(C)C [AChRα 204-217]

affinity for HLA-DR3 [1]: high affinity
Compound: DTPYLDITYHFVMQRLPL [AChRα 195-212]

affinity for HLA-DR3 [1]: high affinity
Compound: MKLGTWTYDGSVVAINPESD [AChRα 144-163]

relative affinity for HLA-DR2 [3]: high relative affinity
Compound: NWVRKVFIDTIPNIMFFS [AChRα 310-327, AChRα subunit peptide fragment, residues 310-327]
